In ChEMBL document CHEMBL1148805 (J Med Chem, 2007):
Active and inactive are the calls of the source. The rule behind the calls is not given here.

Tests used:
[1] = target: Aldo-keto reductase family 1 member B1 (Rattus norvegicus, UniProt P07943)
Description: Inhibition of ALR2 in Sprague-Dawley Albino rat lens

Brain [2] = assay: tissue or blood; conditions: Rattus norvegicus, Sprague-Dawley Albino
Brain [3] = assay: tissue or blood; conditions: Rattus norvegicus, Sprague-Dawley Albino; remark: listed apart in the source
[4] = target: Aldo-keto reductase family 1 member A1 (Rattus norvegicus, UniProt P51635)
Sequence of Aldo-keto reductase family 1 member A1 (P51635 whole entry, looked up): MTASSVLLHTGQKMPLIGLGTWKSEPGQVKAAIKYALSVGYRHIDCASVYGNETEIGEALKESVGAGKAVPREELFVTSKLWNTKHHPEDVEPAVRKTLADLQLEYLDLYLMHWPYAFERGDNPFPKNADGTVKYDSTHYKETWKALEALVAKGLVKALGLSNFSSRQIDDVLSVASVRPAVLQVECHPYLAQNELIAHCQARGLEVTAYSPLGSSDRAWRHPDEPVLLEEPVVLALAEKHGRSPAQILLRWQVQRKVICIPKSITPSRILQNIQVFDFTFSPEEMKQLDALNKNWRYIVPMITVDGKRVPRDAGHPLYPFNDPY
Description: Inhibition of ALR1 in Sprague-Dawley Albino rat kidney

Brain [5] = conditions: Rattus norvegicus, Sprague-Dawley Albino, 10 uM

Description for physchem: Acid dissociation constant, pKa of the compound

Row | SMILES | IC50 [1] [µM] | inhibition at 10 µM (Brain [2]) [%] | inhibition at 100 µM (Brain [3]) [%] | IC50 [4] [µM] | Activity (Brain [5]) | pKa (physchem)
1 | COc1ccc(Cc2cc(=O)n3c(O)cccc3n2)cc1 | > 10 | 18.9 | 42.4 | > 10 |  | 
2 | Cc1c(C)c2c(c(C)c1O)CC[C@@](C)(CCCC(C)CCCC(C)CCCC(C)C)O2 (single isomer, unassigned) [ALPHA-TOCOPHEROL] |  |  | 18.2 |  |  | 
3 | O=c1cc(-c2ccc(O)cc2)nc2c(O)cccn12 | 2.07 | 11.8 | 43.2 | > 10 |  | 
4 | O=c1cc(-c2ccc(O)c(O)c2)nc2cccc(O)n12 | 0.1 | 66.5 | 85.9 | > 10 |  | 
5 | O=c1cc(-c2ccc(O)c(O)c2)nc2c(O)cccn12 | 0.45 | 48.2 | 81.5 | > 10 |  | 
6 | COc1ccc(Cc2cc(=O)n3c(O)cccc3n2)cc1OC | > 10 | 25.8 | 45.1 | > 10 |  | 
7 | O=c1cc(-c2ccc(O)cc2)nc2ccccn12 | 4.56 |  | 23.7 | > 10 | inactive | 7.6
8 | COc1ccc(-c2cc(=O)n3cccc(O)c3n2)cc1OC | > 10 | 1.2 | 8.8 | > 10 |  | 
9 | COc1ccc(-c2cc(=O)n3c(O)cccc3n2)cc1 | 0.74 | 50.4 | 82.8 | > 10 |  | 
10 | O=c1cc(-c2ccc(O)cc2)nc2cccc(O)n12 | 0.42 | 21.2 | 42.4 | > 10 |  | 
11 | O=c1cc(Cc2ccccc2)nc2cccc(O)n12 | 55 | 19.3 | 45.7 | > 10 |  | 
12 | O=c1cc(Cc2ccc(O)c(O)c2)nc2cccc(O)n12 | 12 | 56.7 | 89.9 | > 10 |  | 
13 | O=c1cc(Cc2ccc(O)cc2)nc2cccc(O)n12 | 44 | 11.5 | 51.4 | > 10 |  | 
14 | CC(=O)N(O)CCCCCNC(=O)CCC(=O)N(O)CCCCCNC(=O)CCC(=O)N(O)CCCCCN [DEFEROXAMINE] |  |  | 72 |  |  | 
15 | O=c1cc(-c2ccccc2)nc2c(O)cccn12 | > 10 | 5.9 | 11.9 | > 10 |  | 10.2
16 | COc1ccc(-c2cc(=O)n3cccc(O)c3n2)cc1 | > 10 | 3.4 | 11.5 | > 10 |  | 
17 | COc1ccc(-c2cc(=O)n3c(O)cccc3n2)cc1OC | 100 | 28.5 | 64.7 | > 10 |  | 
18 | O=c1cc(-c2ccccc2)nc2ccccn12 | > 10 | 10.8 | 22.4 | > 10 |  | 
19 | COc1ccc(-c2cc(=O)n3ccccc3n2)cc1OC | > 10 |  | 18.8 | > 10 | inactive | 
20 | O=c1cc(-c2ccc(O)c(O)c2)nc2ccccn12 | 0.67 | 26.6 | 71.6 | > 10 |  | 6.8
21 | COc1ccc(-c2cc(=O)n3ccccc3n2)cc1 | > 10 | 8.3 | 15.1 | > 10 |  | 
